From ChEMBL document CHEMBL4354883, “Design, Synthesis, and Biological Evaluation of HSP90 Inhibitor-SN38 Conjugates for Targeted Drug Accumulation” (J Med Chem, 2020)
Blank lines part the entries; values can stand above or below the compound they belong to. Calls of active or inactive are those of the source. The rule behind the calls is not given here.

Tests used:
CAPAN-1 [1] = assay: Antiproliferative activity against human Capan1 cells assessed as reduction in cell viability after 72 hrs by SRB assay; format: functional, cell-based; details: CAPAN-1, 72 h
HCT-116 [2] = assay: Downregulation of TOP1 expression in human HCT116 cells at 0.04 uM after 24 hrs by Western blot analysis; format: functional, cell-based
A549 [3] = assay: Antiproliferative activity against human A549 cells assessed as reduction in cell viability after 72 hrs by SRB assay; format: functional, cell-based; details: A549, 72 h
HCT-116 [4] = assay: Induction of cell cycle arrest in human HCT116 cells at 3 nM after 24 hrs by RNase A/PI-staining based flow cytometric analysis; format: functional
HCT-116 [5] = assay: Antiproliferative activity against human HCT116 cells assessed as reduction in cell viability after 72 hrs by SRB assay; format: functional, cell-based; details: HCT-116, 72 h
A549 [6] = assay: Downregulation of TOP1 expression in human A549 cells at 0.04 uM after 24 hrs by Western blot analysis; format: functional, cell-based
CAPAN-1 [7] = assay: Induction of cell cycle arrest in human Capan1 cells at 3 nM after 24 hrs by RNase A/PI-staining based flow cytometric analysis; format: functional
[8] = Drug uptake in human A549 cells assessed as maximum emission peaks at 430 nm at 5 uM by fluorescence emission spectral analysis; format: ADME, cell-based; details: a549, 5 µM
A549 [9] = assay: Induction of cell cycle arrest in human A549 cells at 3 to 10 nM after 24 hrs by RNase A/PI-staining based flow cytometric analysis; format: functional
[10] = Drug uptake in human A549 cells assessed as blue fluorescence at 5 uM after 12 hrs by confocal laser scanning microscopic analysis; format: ADME, cell-based; details: a549, 12 h
[11] = Drug uptake in human A549 cells assessed as blue shift in absorption spectrum at 5 uM by UV-visible absorption spectral analysis; format: ADME, cell-based; details: a549, 5 µM
MIA PaCa-2 = assay: Antiproliferative activity against human MIAPaCa2 cells assessed as reduction in cell viability after 72 hrs by SRB assay; format: functional, cell-based; details: MIA PaCa-2, 72 h
L02 = assay: Cytotoxicity agains human HL7702 cells assessed as reduction in cell viability after 72 hrs by SRB assay; format: cell-based; details: L02, 72 h
A549 [12] = assay: Ratio of prodrug release in human A549 cells assessed as increase in 7-ethyl-10-hydroxycamptothecin level at 5 uM after 12 hrs by LC-MS/MS analysis to prodrug release in human A549 cells assessed as increase in 7-ethyl-10-hydroxycamptothecin level at 5 uM after 1 hr by LC-MS/MS analysis; format: ADME, cell-based; details: a549, 5 µM
Heat shock protein HSP90 [13] = target: T1, Heat shock protein HSP90 (Homo sapiens, UniProt P07900+P08238); assay: Drug uptake in human A549 cells assessed as eHSP90-mediated drug internalization by measuring blue fluorescence in PBS solution at 5 uM after 1 to 12 hrs by confocal laser scanning microscopic analysis; format: ADME, cell-based; details: a549, 5 µM, TDE = time-dependent effect
HCT-116 [14] = assay: Downregulation of TOP1 expression in human HCT116 cells after 24 hrs by Western blot analysis; format: functional, cell-based
[15] = target: Heat shock protein HSP 90-alpha (Homo sapiens, UniProt P07900); assay: biochemical
Description: Inhibition of recombinant human full length HSP90 alpha expressed in Escherichia coli cells after 1 hr by fluorescence polarization assay

[16] = Half life of compound in PBS buffer at pH 6.0 at 50 uM by HPLC analysis; format: physicochemical
[17] = Half life in mouse plasma at 25 uM by HPLC analysis; format: ADME, cell-free
[18] = Drug uptake in human A549 cells assessed as eHSP90-mediated total cellular drug internalization at 5 uM after 12 hrs by LC-MS/MS analysis; format: ADME, cell-based; details: a549, 12 h
[19] = Half life in human plasma at 25 uM by HPLC analysis; format: ADME, cell-free
[20] = Drug uptake in human A549 cells assessed as endocytosis-mediated total cellular drug internalization at 5 uM after 12 hrs by LC-MS/MS analysis relative to SN38; format: ADME, cell-based; details: a549, 12 h
[21] = target: T2, DNA topoisomerase 1 (Homo sapiens) (UniProt P11387); assay: Inhibition of topoisomerase 1 in human A549 cells assessed as increase in phosphorylated KAP1 expression after 24 hrs by Western blot analysis; format: cell-based
T2 sequence (whole entry): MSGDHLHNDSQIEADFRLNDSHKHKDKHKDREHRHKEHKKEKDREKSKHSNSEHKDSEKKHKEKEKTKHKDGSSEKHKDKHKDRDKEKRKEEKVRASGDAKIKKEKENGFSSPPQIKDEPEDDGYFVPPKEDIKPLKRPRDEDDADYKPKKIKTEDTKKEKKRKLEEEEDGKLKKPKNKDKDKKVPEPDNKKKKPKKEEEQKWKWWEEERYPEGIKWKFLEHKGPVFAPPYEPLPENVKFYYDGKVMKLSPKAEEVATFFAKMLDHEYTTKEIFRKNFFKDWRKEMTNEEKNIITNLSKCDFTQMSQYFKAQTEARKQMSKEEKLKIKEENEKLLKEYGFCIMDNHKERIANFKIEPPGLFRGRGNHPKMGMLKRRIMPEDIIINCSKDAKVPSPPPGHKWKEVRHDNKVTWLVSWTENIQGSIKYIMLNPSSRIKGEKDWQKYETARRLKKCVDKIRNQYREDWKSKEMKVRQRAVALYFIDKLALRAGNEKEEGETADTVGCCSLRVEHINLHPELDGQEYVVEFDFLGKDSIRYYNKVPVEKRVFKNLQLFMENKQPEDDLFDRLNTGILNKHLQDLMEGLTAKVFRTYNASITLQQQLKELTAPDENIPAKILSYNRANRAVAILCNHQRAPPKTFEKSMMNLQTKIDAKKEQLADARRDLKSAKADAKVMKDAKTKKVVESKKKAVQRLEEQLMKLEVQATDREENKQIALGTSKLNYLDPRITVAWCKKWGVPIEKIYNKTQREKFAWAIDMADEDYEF

[22] = Intrinsic clearance in human liver microsomes at 1 uM preincubated for 5 mins followed by NADPH addition and measured up to 360 mins by LC-MS/MS analysis; format: ADME, Microsome; details: 6 h
[23] = Drug uptake in human A549 cells assessed as endocytosis-mediated total cellular drug internalization at 5 uM after 12 hrs by LC-MS/MS analysis relative to irinotecan; format: ADME, cell-based; details: a549, 12 h
Heat shock protein HSP90 [24] = target: T1, Heat shock protein HSP90; assay: Inhibition of HSP90 in human A549 cells assessed as upregulation of HSP70 expression at 0.04 to 5 uM after 24 hrs by Western blot analysis; format: cell-based
Heat shock protein HSP90 [25] = target: T1, Heat shock protein HSP90; assay: Inhibition of HSP90 in human A549 cells assessed as downregulation of AKT protein expression after 24 hrs by Western blot analysis; format: cell-based
A549 [26] = assay: Induction of cell cycle arrest in human A549 cells assessed as accumulation at G2/M phase after 24 hrs by RNase A/PI-staining based flow cytometric analysis; format: functional
[27] = Half life in BALB/c mouse at 50 mg/kg, iv after 5 to 24 hrs by LC-MS/MS analysis; format: ADME, organism-based; details: in vivo
[28] = target: T2, DNA topoisomerase 1 (Homo sapiens); assay: Inhibition of topoisomerase 1 in human HCT116 cells assessed as increase in phosphorylated KAP1 expression after 24 hrs by Western blot analysis; format: cell-based
CAPAN-1 [29] = assay: Induction of cell cycle arrest in human Capan1 cells assessed as accumulation at G2/M phase after 24 hrs by RNase A/PI-staining based flow cytometric analysis; format: functional
[30] = Clearance in BALB/c mouse at 50 mg/kg, iv after 5 to 24 hrs by LC-MS/MS analysis; format: ADME, organism-based; details: in vivo
[31] = Half life of compound in PBS buffer at pH 7.4 at 50 uM by HPLC analysis; format: physicochemical
[32] = Half life in human liver microsomes at 1 uM preincubated for 5 mins followed by NADPH addition and measured up to 360 mins by LC-MS/MS analysis; format: ADME, Microsome
[33] = Apparent volume of distribution at steady state in BALB/c mouse at 50 mg/kg, iv after 5 to 24 hrs by LC-MS/MS analysis; format: ADME, organism-based; details: in vivo, read-out: Vdss(app)
HCT-116 [34] = assay: Induction of cell cycle arrest in human HCT116 cells assessed as accumulation at G2/M phase after 24 hrs by RNase A/PI-staining based flow cytometric analysis; format: functional
[35] = Metabolic stability in human liver microsomes assessed as compound remaining at 1 uM preincubated for 5 mins followed by NADPH addition and measured after 60 mins by LC-MS/MS analysis; format: ADME, Microsome; details: read-out: Stability
[36] = Toxicity in mouse xenografted with human HCT116 cells assessed as body weight loss at 50 mg/kg, iv for 5 consecutive days per week and measured every 3 to 4 days up to 14 days relative to control; format: organism-based; details: in vivo
A549 [37] = assay: Downregulation of TOP1 expression in human A549 cells after 24 hrs by Western blot analysis; format: functional, cell-based
Heat shock protein HSP90 [38] = target: T1, Heat shock protein HSP90; assay: Inhibition of HSP90 in human HCT116 cells assessed as downregulation of AKT protein expression after 24 hrs by Western blot analysis; format: cell-based
Heat shock protein HSP90 [39] = target: T1, Heat shock protein HSP90; assay: Inhibition of HSP90 in human HCT116 cells assessed as upregulation of HSP70 expression at 0.04 to 5 uM after 24 hrs by Western blot analysis; format: cell-based
[40] = AUC(0 to infinity) in BALB/c mouse at 50 mg/kg, iv after 5 to 24 hrs by LC-MS/MS analysis; format: ADME, organism-based; set-up: dose 50 mg/kg, route intravenous, time infinity; details: in vivo

IC50 (A549 [3]): 11 nM
IC50 (HCT-116 [5]): 4 nM
Drug uptake [8]: Active
Drug uptake [10]: Active
Drug uptake [11]: Active
IC50 (MIA PaCa-2): 13 nM
Compound: CCc1c2c(nc3ccc(O)cc13)-c1cc3c(c(=O)n1C2)COC(=O)[C@]3(O)CC [7-ETHYL-10-HYDROXYCAMPTOTHECIN]
IC50 (CAPAN-1 [1]): 8 nM
inhibition (HCT-116 [2]): Active
Activity (HCT-116 [4]): Active
inhibition (A549 [6]): Active
Activity (CAPAN-1 [7]): Active
Activity (A549 [9]): Active
IC50 (L02): 18 nM

Ratio (A549 [12]): 4.3
Drug uptake (Heat shock protein HSP90 [13]): Tde
IC50 [15]: 70 nM
half-life at 50 µM [16]: > 24 h
half-life at 25 µM [17]: 17 h
Drug uptake [18]: Active
half-life at 25 µM [19]: > 24 h
fold change (FC) [20]: 1.6 to 1.9
inhibition [21]: Dose-dependent effect
IC50 (A549 [3]): 324 nM
CLH [22]: 5.3 mL/min/kg
fold change (FC) [23]: 2.8 to 3.8
IC50 (HCT-116 [5]): 83 nM
inhibition (Heat shock protein HSP90 [24]): Active
inhibition (Heat shock protein HSP90 [25]): Dose-dependent effect
half-life [27]: 1.51 h
inhibition [28]: Dose-dependent effect
Drug uptake [8]: Active
clearance [30]: 5.51 mL/min/kg
half-life at 50 µM [31]: 14 h
Drug uptake [10]: Active
half-life at 1 µM [32]: 2.4 h
Vd [33]: 0.1 L/kg
Drug uptake [11]: Active
remaining at 1 h, 1 µM [35]: 75%
IC50 (MIA PaCa-2): 205 nM
inhibition (Heat shock protein HSP90 [38]): Dose-dependent effect
inhibition (Heat shock protein HSP90 [39]): Active
AUC(0-inf) [40]: 151 µg·h/mL
Compound: CCc1c2c(nc3ccc(O)cc13)-c1cc3c(c(=O)n1C2)COC(=O)[C@@]3(CC)OC(=O)CCNC(=O)c1noc(-c2cc(C(C)C)c(O)cc2O)c1-c1ccc(CN2CCOCC2)cc1
IC50 (CAPAN-1 [1]): 206 nM
inhibition (HCT-116 [14]): Dose-dependent effect
Activity (A549 [26]): Dose-dependent effect
Activity (CAPAN-1 [29]): Dose-dependent effect
Activity (HCT-116 [34]): Dose-dependent effect
Activity [36]: < 20%
IC50 (L02): 7890 nM
TOP1 downregulation (A549 [37]): Dose-dependent effect

IC50 [15]: 1510 nM
half-life at 50 µM [16]: > 24 h
half-life at 25 µM [17]: 10 h
half-life at 25 µM [19]: 13 h
half-life at 50 µM [31]: 7 h
Compound: CCc1c2c(nc3ccc(O)cc13)-c1cc3c(c(=O)n1C2)COC(=O)[C@@]3(CC)OC(=O)CNC(=O)CNc1cc(-n2nc(C(F)(F)F)c3c2CC(C)(C)CC3=O)ccc1C(N)=O

IC50 [15]: 1700 nM
half-life at 50 µM [16]: > 24 h
half-life at 25 µM [17]: 17 h
half-life at 25 µM [19]: > 24 h
half-life at 50 µM [31]: 12 h
Compound: CCc1c2c(nc3ccc(O)cc13)-c1cc3c(c(=O)n1C2)COC(=O)[C@@]3(CC)OC(=O)CCNC(=O)CNc1cc(-n2nc(C(F)(F)F)c3c2CC(C)(C)CC3=O)ccc1C(N)=O
